Experimental data taken from patent US11377442B2, “Small molecule agonists and antagonists of NR2F6 activity” (ZANDER THERAPEUTICS, INC., priority 2016, dated 2022).
Read-outs that look alike come from different tables or passages of the source.

Legend:
Assay type in all cases: cell-based
NR2F6 LBD = target: T1, NR2F6 LBD (Homo sapiens, UniProt P10588); assay: NR2F6 LBD transient transfection; details: LBD
T1 construct: expressed in transfected cells
T1 sequence (P10588 165-393 limits assumed): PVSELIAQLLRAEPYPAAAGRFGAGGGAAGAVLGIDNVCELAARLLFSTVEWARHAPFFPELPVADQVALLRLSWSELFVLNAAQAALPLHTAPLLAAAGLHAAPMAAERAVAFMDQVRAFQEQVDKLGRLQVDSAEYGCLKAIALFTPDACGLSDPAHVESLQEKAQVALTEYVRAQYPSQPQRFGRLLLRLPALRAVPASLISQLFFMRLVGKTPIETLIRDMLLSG
Description: FIGS. 27A and 27B show NR2F6 and LBD transient transfection, respectively, for Compound D28. Higher concentrations were excluded due to lower signal (tox effect). FIGS. 27C and 27D show NR2F6 and LBD transient transfection at different concentrations for different compounds. 9 compounds were tested on LBD transfected cells (40, 10, 2 and 0.5 μM, 4 replicates). FIGS. 27E and 27F show toxicity of Compound D28. 9 compounds were tested for cytotoxicity on LBD transfected cells (40, 10, 2 and 0.5 μM, 4 replicates). […] Cytotoxicity normalized to DMSO is shown in FIG. 27F (0% cytotoxicity corresponds to DMSO signal, 100%—zero signal).
FIGS. 34A and 34B show NR2F6 LBD transient transfection for Compound E21. 9 compounds were tested on LBD transfected cells (40, 10, 2 and 0.5 μM, 4 replicates). FIGS. 34C and 34D show NR2F6 and LBD transient transfection at different concentrations for different compounds. 9 compounds were tested on LBD transfected cells (40, 10, 2 and 0.5 μM, 4 replicates). […] Cytotoxicity normalized to DMSO is shown in FIG. 34D (0% cytotoxicity corresponds to DMSO signal, 100%—zero signal). All compounds were tested at 5, 10, 25 and 50 uM in duplicates. Dog PBMC (1×10^6 cells/mL) were activated by 10 ng/mL PMA+500 ng/mL ionomycin. Data were normalized to controls with (100%)/without (0%) PMA+ionomycin activation.
FIGS. 39A and 39B show NR2F6 LBD transient transfection for Compound F1. 9 compounds were tested on LBD transfected cells (40, 10, 2 and 0.5 μM, 4 replicates). FIGS. 39C and 39D show toxicity of NR2F6 LBD transient transfection. 9 compounds were tested for cytotoxicity on LBD transfected cells (40, 10, 2 and 0.5 μM, 4 replicates). Tox effect causes lower signal compared to DMSO. Cytotoxicity normalized to DMSO is shown in FIG. 39D (0% cytotoxicity corresponds to DMSO signal, 100%—zero signal).

NR2F6 = target: T2, NR2F6 (Homo sapiens, UniProt P10588); assay: NR2F6 agonist screening, Firefly signal cmpd/DMSO
T2 construct: expressed in transfected cells; also transient transfection
T2 sequence (P10588 1-404): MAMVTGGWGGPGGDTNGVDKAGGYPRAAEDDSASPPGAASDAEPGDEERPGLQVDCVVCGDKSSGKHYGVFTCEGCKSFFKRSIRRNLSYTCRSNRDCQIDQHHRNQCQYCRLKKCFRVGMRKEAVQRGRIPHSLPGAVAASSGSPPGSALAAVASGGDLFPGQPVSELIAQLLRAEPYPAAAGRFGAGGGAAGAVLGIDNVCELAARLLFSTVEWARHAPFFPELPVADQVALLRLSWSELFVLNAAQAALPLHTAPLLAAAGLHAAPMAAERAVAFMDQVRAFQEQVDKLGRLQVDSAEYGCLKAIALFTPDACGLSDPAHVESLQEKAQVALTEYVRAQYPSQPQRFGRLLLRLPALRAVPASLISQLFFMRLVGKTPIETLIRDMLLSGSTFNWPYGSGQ

HEK293 pGL4 = assay: Firefly_pGL signal, cmpd/DMSO (pGL4 control cells); details: Homo sapiens
Renilla = Renilla signal in NR2F6 agonist screening, cmpd/DMSO; details: Renilla, F4
[1] = read-out: Renilla, F4, cmpd/DMSO (mean)
[2] = 1% FBS, read-out: Renilla, F4, 1% FBS, cmpd/DMSO (mean)
[3] = 10% FBS, read-out: Renilla, F4, 10% FBS, cmpd/DMSO (mean)

## CC(C)CN[C@H]1CS(=O)(=O)C[C@@H]1S(=O)(=O)c1ccc(Cl)cc1 [Compound D120]
NR2F6 LBD; 0.5 uM
  Firefly LBD, cmpd/DMSO (mean): 1.1
NR2F6 LBD; 2 uM
  Firefly LBD, cmpd/DMSO (mean): 1.7
NR2F6 LBD; 10 uM
  Firefly LBD, cmpd/DMSO (mean): 4.1
NR2F6 LBD; 40 uM
  Firefly LBD, cmpd/DMSO (mean): 0.8
NR2F6; 0.5 uM
  Firefly F4, cmpd/DMSO (mean): 1.3
NR2F6; 2 uM
  Firefly F4, cmpd/DMSO (mean): 1.5
NR2F6; 10 uM
  Firefly F4, cmpd/DMSO (mean): 5.1
NR2F6; 40 uM
  Firefly F4, cmpd/DMSO (mean): 2.2
NR2F6; 1% FBS, 10 uM
  F4, Firefly/Renilla for S/B(F4) > 3: 2.3
  Firefly, F4/pGL4 for S/B(F4) > 3: 1.7
  Firefly, F4, 1% FBS, cmpd/DMSO (mean): 4.7
NR2F6; 10% FBS, 10 uM
  F4, Firefly/Renilla for S/B(F4) > 3: 2.1
  Firefly, F4/pGL4 for S/B(F4) > 3: 1.8
  Firefly, F4, 10% FBS, cmpd/DMSO (mean): 3.6
NR2F6; 1% FBS, 0.5 uM
  Firefly, F4, 1% FBS, cmpd/DMSO (mean): 0.8
NR2F6; 1% FBS, 2 uM
  Firefly, F4, 1% FBS, cmpd/DMSO (mean): 1.2
NR2F6; 1% FBS, 40 uM
  Firefly, F4, 1% FBS, cmpd/DMSO (mean): 0.2
NR2F6; 10% FBS, 0.5 uM
  Firefly, F4, 10% FBS, cmpd/DMSO (mean): 1.0
NR2F6; 10% FBS, 2 uM
  Firefly, F4, 10% FBS, cmpd/DMSO (mean): 1.2
NR2F6; 10% FBS, 40 uM
  Firefly, F4, 10% FBS, cmpd/DMSO (mean): 1.7
HEK293 pGL4; HEK293, 0.5 uM, pGL4, read-out: Firefly pGL4, cmpd/DMSO (mean)
  fold induction at 0.5 µM: 1.4
HEK293 pGL4; HEK293, 2 uM, pGL4, read-out: Firefly pGL4, cmpd/DMSO (mean)
  fold induction at 2 µM: 1.5
HEK293 pGL4; HEK293, 10 uM, pGL4, read-out: Firefly pGL4, cmpd/DMSO (mean)
  fold induction at 10 µM: 3.7
HEK293 pGL4; HEK293, 40 uM, pGL4, read-out: Firefly pGL4, cmpd/DMSO (mean)
  fold induction at 40 µM: 0.8
HEK293 pGL4; HEK293, pGL4, 1% FBS, 0.5 uM, read-out: Firefly, pGL4, 1% FBS, cmpd/DMSO (mean)
  fold induction at 0.5 µM: 1.5
HEK293 pGL4; HEK293, pGL4, 1% FBS, 2 uM, read-out: Firefly, pGL4, 1% FBS, cmpd/DMSO (mean)
  fold induction at 2 µM: 1.5
HEK293 pGL4; HEK293, pGL4, 1% FBS, 10 uM, read-out: Firefly, pGL4, 1% FBS, cmpd/DMSO (mean)
  fold induction at 10 µM: 2.8
HEK293 pGL4; HEK293, pGL4, 1% FBS, 40 uM, read-out: Firefly, pGL4, 1% FBS, cmpd/DMSO (mean)
  fold induction at 40 µM: 0.9
HEK293 pGL4; HEK293, pGL4, 10% FBS, 0.5 uM, read-out: Firefly, pGL4, 10% FBS, cmpd/DMSO (mean)
  fold induction at 0.5 µM: 1.1
HEK293 pGL4; HEK293, pGL4, 10% FBS, 2 uM, read-out: Firefly, pGL4, 10% FBS, cmpd/DMSO (mean)
  fold induction at 2 µM: 1.7
HEK293 pGL4; HEK293, pGL4, 10% FBS, 10 uM, read-out: Firefly, pGL4, 10% FBS, cmpd/DMSO (mean)
  fold induction at 10 µM: 2
HEK293 pGL4; HEK293, pGL4, 10% FBS, 40 uM, read-out: Firefly, pGL4, 10% FBS, cmpd/DMSO (mean)
  fold induction at 40 µM: 0.7
Renilla; [1]
  fold induction at 0.5 µM: 1
  fold induction at 2 µM: 1.2
  fold induction at 10 µM: 1.7
  fold induction at 40 µM: 1.6
Renilla; [2]
  fold induction at 0.5 µM: 1
  fold induction at 2 µM: 1.3
  fold induction at 10 µM: 2.1
  fold induction at 40 µM: 0.6
Renilla; [3]
  fold induction at 0.5 µM: 1
  fold induction at 2 µM: 1.1
  fold induction at 10 µM: 1.7
  fold induction at 40 µM: 1.5
